SMILES strings stand for the structures. Activity calls are given as the source filed them. No cut-off for these calls is given here.

For test [1], the target named is T1, Rhodesain (Trypanosoma brucei rhodesiense, UniProt Q95PM0). Briefly: Inhibition of Trypanosoma brucei rhodesiense recombinant rhodesain using low concentration of enzyme by standard fluorescence assay in presence of detergent.
The nature of test [2]: Inhibition of Plasmodium falciparum recombinant falcipain-3 by standard fluorescence assay.
For test [3], the target named is T1, Rhodesain. The experiment in a line: Inhibition of Trypanosoma brucei rhodesiense recombinant rhodesain using high concentration of enzyme by standard fluorescence assay in presence of detergent.
Test [4] is described as follows: Inhibition of Plasmodium falciparum recombinant falcipain-2 using Cbz-Leu-Arg-AMC as substrate by standard fluorescence assay.
Test [5] deals with T1, Rhodesain. Briefly: Inhibition of Trypanosoma brucei rhodesiense recombinant rhodesain using high concentration of enzyme by standard fluorescence assay.
Test [6] relates to Trypanosoma brucei brucei. The experiment in a line: Antitrypanosomal activity against Trypanosoma brucei brucei. It counts as functional, organism-based.
Test [7] deals with T1, Rhodesain. Briefly: Inhibition of Trypanosoma brucei rhodesiense recombinant rhodesain using low concentration of enzyme by standard fluorescence assay.
Test [8] concerns Plasmodium falciparum. The experiment in a line: Antiplasmodial activity against Plasmodium falciparum W2 by flow cytometry. It counts as functional, organism-based. For orientation: Flow cytometry measures light scatter and fluorescence of single cells or particles in a stream.
Test [9] concerns the target Rhodesain (Trypanosoma brucei rhodesiense) (UniProt Q95PM0). The experiment in a line: (§1) Inhibition of Trypanosoma brucei rhodesiense recombinant rhodesain by standard fluorescence assay. The settings on record: TDE = time-dependent effect.
Test [10] concerns the target T1, Rhodesain. The description is as §1.
For test [11], the system named is Plasmodium falciparum. Briefly: Antiplasmodial activity against Plasmodium falciparum W2 at 10 uM by flow cytometry. Format: functional.
The target of test [12] is Rhodesain (Trypanosoma brucei rhodesiense) (UniProt Q95PM0). Briefly: Inhibition of Trypanosoma brucei rhodesiense recombinant rhodesain at 100 uM by standard fluorescence assay.
The test system of test [13] is Plasmodium falciparum. The experiment in a line: Inhibition of Plasmodium falciparum recombinant falcipain-2 at 100 uM by standard fluorescence assay.
A short description of test [14]: Inhibition of Plasmodium falciparum recombinant falcipain-2 using Cbz-Phe-Arg-AMC as substrate by standard fluorescence assay.

T1 sequence (Q95PM0 whole entry): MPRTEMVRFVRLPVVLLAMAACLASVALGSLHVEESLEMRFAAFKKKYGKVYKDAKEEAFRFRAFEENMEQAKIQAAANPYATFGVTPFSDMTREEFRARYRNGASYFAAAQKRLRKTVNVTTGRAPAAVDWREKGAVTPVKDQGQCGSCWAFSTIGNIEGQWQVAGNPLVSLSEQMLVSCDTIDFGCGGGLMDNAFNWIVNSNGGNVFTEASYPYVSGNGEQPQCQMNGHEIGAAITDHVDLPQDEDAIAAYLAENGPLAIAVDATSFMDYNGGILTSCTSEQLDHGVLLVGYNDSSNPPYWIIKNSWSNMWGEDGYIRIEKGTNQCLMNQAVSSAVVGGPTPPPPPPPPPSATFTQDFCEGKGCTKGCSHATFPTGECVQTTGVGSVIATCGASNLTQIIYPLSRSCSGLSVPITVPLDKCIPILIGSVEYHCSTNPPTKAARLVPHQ
Chain of Rhodesain (Trypanosoma brucei rhodesiense) (Q95PM0 1-450): as the sequence (Q95PM0 whole entry) above

Take `CCOC(=O)/C=C/[C@H](CCC(=O)NC(c1ccccc1)(c1ccccc1)c1ccccc1)NC(=O)[C@@H](NC(=O)OC(C)(C)C)c1ccccc1`: the Ki (as a rule, the equilibrium dissociation constant of an inhibitor or competing ligand from its target) at Rhodesain [1] worked out at 0.3 µM; in test [2] it was 1.4 µM; at Rhodesain [3], 0.4 µM; in test [4] it was 0.45 µM; at Rhodesain [5], 0.64 µM; on Rhodesain [7], 0.64 µM. Besides, the Ki at Rhodesain [10] amounted to 0.47 µM. For the same molecule, the IC50 (in general, the concentration that inhibits the measured activity by half) in test [6] was 31 µM; in the test with Plasmodium falciparum [8] it was 3.9 µM. Besides, the “Time-dependent inhibition (qualitative)” value in [9] is “tde”.

Take `CCOC(=O)/C=C\C(=O)N[C@@H](CCC(=O)NC(c1ccccc1)(c1ccccc1)c1ccccc1)C(=O)OC`: in the test on Plasmodium falciparum [11], at 10 µM the inhibition was 30%. The inhibition entry (in test [12]; with Plasmodium falciparum [13]) was “inactive” each time. In [6], this molecule came in with an IC50 of 25.5 µM.

`CCOC(=O)/C=C/CN[C@@H](CCC(N)=O)C(=O)N[C@H](C(=O)N[C@H](C(=O)N[C@@H](C)C(=O)OCc1ccccc1)C(C)C)C1CCCCC1`: the inhibition constant (Ki) was determined as 28.4 µM in test [2], 5.4 µM in test [14], 6.7 µM in test [4] and 5.8 µM on Rhodesain [10]. For the same molecule, the IC50 with Plasmodium falciparum [8] is 35.8 µM.

The values above are taken from ChEMBL document CHEMBL1156268, “Michael acceptor based antiplasmodial and antitrypanosomal cysteine protease inhibitors with unusual amino acids” (J Med Chem, 2010).
